# Values of other authors as cited in patent US20200354402A1, “PEPTIDE COMPOSITIONS AND RELATED METHODS” (Allegro Pharmaceuticals, LLC, priority 2017, published 2020).
# Test system: ischemia-induced retinal neovascularization
# Settings: intravitreal injection; stated as known
substance,measurement,value
R—G—E.TFA [Test Compound 21],known activity of the control peptides,known to be inactive
